# Assay results taken from patent US11440907B1 (Merck Patent GmbH, priority 2018, dated 2022).
# pEC50, pIC50: −log10 of the molar value.
# Test system: XBP1(u)-luciferase splicing reporter in HepG2 hepatoma cells
# Assay: HepG2 XBP1 reporter assay (XBP1(u)-Luc)
# Type: cell-based
# Conditions: Homo sapiens, 6 hours after compound addition, Table 3, read-out: XBP1-luc HepG2 1 EC50
row,pEC50,Compound
1,5.30 to 5.70,"Cc1cc(N2CCCCCC2c2ccccc2)nc(N)n1 (racemic) [I-4, (+/−)-4-methyl-6-(2-phenylazepan-1-yl)pyrimidin-2-amine]"
2,5.30 to 5.70,"Cc1cc(N2CCCCCC2c2ccccc2C)nc(N)n1 (racemic) [I-6, (+/−)-4-methyl-6-(2-(2-(methyl)phenyl)azepan-1-yl)pyrimidin-2-amine]"
3,≤ 5.30,"COc1ccc(C2CCCCCN2c2cc(C)nc(N)n2)cc1 (racemic) [I-23, (+/−)-4-[2-(4-methoxyphenyl)azepan-1-yl]-6-methyl-pyrimidin-2-amine]"
4,5.70 to 6.22,"COc1ccc(OC)c(C2CCCCCN2c2cc(C)nc(N)n2)c1 (racemic) [I-25, (+/−)-4-(2-(2,5-dimethoxyphenyl)azepan-1-yl)-6-methylpyrimidin-2-amine]"
5,5.70 to 6.22,"CCc1ccccc1C1CCCCCN1c1cc(C)nc(N)n1 (racemic) [I-45, (+/−)-4-(2-(2-ethylphenyl)azepan-1-yl)-6-methylpyrimidin-2-amine]"
6,5.70 to 6.22,"COc1cccc(F)c1C1CCCCCN1c1cc(C)nc(N)n1 (racemic) [I-50, (+/−)-4-[2-(2-fluoro-6-methoxy-phenyl)azepan-1-yl]-6-methyl-pyrimidin-2-amine]"

# Test system: β-catenin-TCF-mediated reporter transcription activity in Colo 205 cells
# Assay: Colo 205 reporter assay (TCF/LEF promoter-driven firefly luciferase)
# Type: cell-based
# Conditions: Colo 205 TCF/LEF luciferase reporter, 5 hours after compound addition, 384 well; read-out: Colo205 IC50
# Description: The compounds of the invention described herein were screened using the assay procedure for β-catenin-TCF-mediated reporter transcription activity described below.
# Reporter cell lines were generated by stably transfecting cells of cancer cell lines (e.g., colon cancer) with a plasmid reporter construct (From SABiosciences, a QIAGEN company) that includes TCF/LEF promoter driving expression of the firefly luciferase gene. TCF/LEF reporter constructs were made in which TCF/LEF promoter, a promoter with optimal number of TCF/LEF binding sites designed by SABiosciences, was linked upstream of the firefly luciferase gene. This construct could also include a puromycin resistance gene as a selectable marker. This construct could also be used to stably transfect Colo 205 cells, a colon cancer cell line having a mutated APC gene that causes a constitutively active β-catenin. A control cell line was generated using another plasmid construct containing the luciferase gene under the control of a CMV basal promoter which is not activated by β-catenin.
# Colo 205 Cultured cells with a stably transfected reporter construct were plated at approximately 10,000 cells per well into 384 well multi-well plates for twenty four hours. The testing compounds were then added to the wells in 2-fold serial dilutions using a twenty micromolar top concentration. A series of control wells for each cell type received only compound solvent. Five hours after the addition of compound, reporter activity for luciferase was assayed, by addition of the SteadyGlo luminescence reagent (Promega). The reporter luminescence activity was measured using Pherastar plate reader (BMG Labtech). Readings were normalized to DMSO only treated cells, and normalized activities were then used in the IC50 calculations. The Colo 205 reporter assay data are summarized in Table 3: A<0.3 μM; 0.3 μM≤B<1.0 μM; 1.0 μM≤C<5.0 μM; D≥5.0 μM.
row,pIC50,Compound
1,6.00 to 6.52,Cc1cc(N2CCCOCC2c2cc([S+](C)[O-])ccc2Cl)nc(N)n1 (stereo not drawn) [I-123]

# Same assay, conditions: Homo sapiens; Colo 205 TCF/LEF luciferase reporter, 5 hours after compound addition, 384 well; read-out: Colo205 IC50
row,pIC50,Compound
1,6.00 to 6.52,"Cc1cc(N2CCCCCC2c2ccccc2)nc(N)n1 (racemic) [I-4, (+/−)-4-methyl-6-(2-phenylazepan-1-yl)pyrimidin-2-amine]"
2,6.00 to 6.52,"Cc1cc(N2CCCCCC2c2ccccc2C)nc(N)n1 (racemic) [I-6, (+/−)-4-methyl-6-(2-(2-(methyl)phenyl)azepan-1-yl)pyrimidin-2-amine]"
3,6.00 to 6.52,"COc1ccc(C2CCCCCN2c2cc(C)nc(N)n2)cc1 (racemic) [I-23, (+/−)-4-[2-(4-methoxyphenyl)azepan-1-yl]-6-methyl-pyrimidin-2-amine]"
4,> 6.52,"COc1ccc(OC)c(C2CCCCCN2c2cc(C)nc(N)n2)c1 (racemic) [I-25, (+/−)-4-(2-(2,5-dimethoxyphenyl)azepan-1-yl)-6-methylpyrimidin-2-amine]"
5,6.00 to 6.52,"CCc1ccccc1C1CCCCCN1c1cc(C)nc(N)n1 (racemic) [I-45, (+/−)-4-(2-(2-ethylphenyl)azepan-1-yl)-6-methylpyrimidin-2-amine]"
6,6.00 to 6.52,"COc1cccc(F)c1C1CCCCCN1c1cc(C)nc(N)n1 (racemic) [I-50, (+/−)-4-[2-(2-fluoro-6-methoxy-phenyl)azepan-1-yl]-6-methyl-pyrimidin-2-amine]"
7,6.00 to 6.52,"COc1ccc(C(=O)N(C)C)cc1C1CCCCCN1c1cc(C)nc(N)n1 (racemic) [I-115, (+/−)-3-(1-(2-amino-6-methylpyrimidin-4-yl)azepan-2-yl)-4-methoxy-N,N-dimethylbenzamide]"
8,6.00 to 6.52,"COC(=O)c1ccc(Cl)c(C2COCCCN2c2cc(C)nc(N)n2)c1 (racemic) [I-126, (+/−)-Methyl 3-(4-(2-amino-6-methylpyrimidin-4-yl)-1,4-oxazepan-3-yl)-4-chlorobenzoate]"
9,6.00 to 6.52,"CNC(=O)c1ccc(Cl)c(C2COCCCN2c2cc(C)nc(N)n2)c1 (racemic) [I-129, (+/−)-3-(4-(2-amino-6-methylpyrimidin-4-yl)-1,4-oxazepan-3-yl)-4-chloro-N-methylbenzamide]"
10,6.00 to 6.52,"Cc1cc(N2CCCOCC2c2ccc(-n3cccn3)cc2Cl)nc(N)n1 (racemic) [I-133, (+/−)-4-(3-(2-chloro-4-(1H-pyrazol-1-yl)phenyl)-1,4-oxazepan-4-yl)-6-methylpyrimidin-2-amine]"
11,6.00 to 6.52,"Cc1cc(N2CCCOCC2c2ccc(NS(C)(=O)=O)cc2Cl)nc(N)n1 (racemic) [I-139, (+/−)-N-[4-[4-(2-amino-6-methyl-pyrimidin-4-yl)-1,4-oxazepan-3-yl]-3-chloro-phenyl]methanesulfonamide]"
12,> 6.52,"Cc1cc(N2CCCOCC2c2ccc(N)cc2Cl)nc(N)n1 (racemic) [I-140, (+/−)-4-[3-(4-amino-2-chloro-phenyl)-1,4-oxazepan-4-yl]-6-methyl-pyrimidin-2-amine]"
13,> 6.52,"CC(=O)Nc1ccc(C2COCCCN2c2cc(C)nc(N)n2)c(Cl)c1 (racemic) [I-141, (+/−)-N-(4-(4-(2-amino-6-methylpyrimidin-4-yl)-1,4-oxazepan-3-yl)-3-chlorophenyl)acetamide]"
14,> 6.52,"Cc1cc(N2CCCOCC2c2cc(O)ccc2Cl)nc(N)n1 (racemic) [I-147, (+/−)-3-[4-(2-amino-6-methyl-pyrimidin-4-yl)-1,4-oxazepan-3-yl]-4-chloro-phenol]"
15,6.00 to 6.52,"Cc1cc(N2CCCOCC2c2ccc(C(=O)N3CCCC3)cc2Cl)nc(N)n1 (racemic) [I-151, (+/−)-(4-(4-(2-amino-6-methylpyrimidin-4-yl)-1,4-oxazepan-3-yl)-3-chlorophenyl)(pyrrolidin-1-yl)methanone]"
16,6.00 to 6.52,"Cc1cc(N2CCCOCC2c2ccc(C(=O)N(C)C3CCOCC3)cc2Cl)nc(N)n1 (racemic) [I-153, (+/−)-4-(4-(2-amino-6-methylpyrimidin-4-yl)-1,4-oxazepan-3-yl)-3-chloro-N-methyl-N-(tetrahydro-2H-pyran-4-yl)benzamide]"
17,6.00 to 6.52,"Cc1cc(N2CCCOCC2c2cc(-c3ccn[nH]3)ccc2Cl)nc(N)n1 (racemic) [I-157, (+/−)-4-(3-(2-chloro-5-(1H-pyrazol-5-yl)phenyl)-1,4-oxazepan-4-yl)-6-methyl-pyrimidin-2-amine]"
18,> 6.52,"Cc1cc(N2CCCOCC2c2cc(NC(=O)C(F)(F)F)ccc2Cl)nc(N)n1 (racemic) [I-159, (+/−)-N-[3-[4-(2-amino-6-methyl-pyrimidin-4-yl)-1,4-oxazepan-3-yl]-4-chloro-phenyl]-2,2,2-trifluoro-acetamide]"
19,> 6.52,"Cc1cc(N2CCCOC[C@@H]2c2ccccc2Cl)nc(N)n1 (single isomer, unassigned) [I-31]"
20,> 6.52,"Cc1cc(N2CCCOC[C@@H]2c2cc(N)ccc2Cl)nc(N)n1 (single isomer, unassigned) [I-87]"
21,6.00 to 6.52,"Cc1cc(N2CCCOC[C@@H]2c2ccc(C#N)cc2Cl)nc(N)n1 (single isomer, unassigned) [I-97]"
22,> 6.52,"COc1cc(S(C)(=O)=O)ccc1[C@H]1CCCCCN1c1cc(C)nc(N)n1 (single isomer, unassigned) [I-99, 4-[2-(2-methoxy-4-methylsulfonyl-phenyl)azepan-1-yl]-6-methyl-pyrimidin-2-amine]"
23,> 6.52,"COc1ccc(OC)c([C@H]2COCCCN2c2cc(C)nc(N)n2)c1 (single isomer, unassigned) [I-101]"
24,> 6.52,"Cc1cc(N2CCCCC[C@@H]2c2cc(OC(C)C)ccc2Cl)nc(N)n1 (single isomer, unassigned) [I-108]"

row,pIC50,Compound
1,> 6.52,"COc1ccc(O)cc1[C@H]1CCCCCN1c1cc(C)nc(N)n1 (single isomer, unassigned) [I-127]"
2,6.00 to 6.52,"COc1ccc(Cl)c([C@H]2CCCCCN2c2cc(C)nc(N)n2)c1 (single isomer, unassigned) [I-135]"
3,> 6.52,"COc1ccc(Cl)c([C@H]2COCCCN2c2cc(C)nc(N)n2)c1 (single isomer, unassigned) [I-138]"
4,6.00 to 6.52,"Cc1cc(N2CCCOC[C@@H]2c2ccc(C(=O)N(C)C)cc2Cl)nc(N)n1 (single isomer, unassigned) [I-144]"
5,6.00 to 6.52,"Cc1cc(N2CCCOC[C@H]2c2cc(C(O)C(F)(F)F)ccc2Cl)nc(N)n1 (single isomer, unassigned) [I-146]"
6,6.00 to 6.52,"Cc1cc(N2CCCCCC2c2ccccc2F)nc(N)n1 (stereo not drawn) [I-36, 4-(2-(2-fluorophenyl)azepan-1-yl)-6-methylpyrimidin-2-amine]"
7,6.00 to 6.52,"Cc1cc(N2CCCOCC2c2cc([N+](=O)[O-])ccc2Cl)nc(N)n1 (stereo not drawn) [I-72, 4-(3-(2-chloro-5-nitrophenyl)-1,4-oxazepan-4-yl)-6-methylpyrimidin-2-amine]"
8,> 6.52,CC(=O)Nc1ccc(Cl)c(C2COCCCN2c2cc(C)nc(N)n2)c1 (stereo not drawn) [I-84]
9,6.00 to 6.52,COCC(=O)Nc1ccc(Cl)c(C2COCCCN2c2cc(C)nc(N)n2)c1 (stereo not drawn) [I-90]
10,> 6.52,CNC(=O)c1ccc(C2COCCCN2c2cc(C)nc(N)n2)c(Cl)c1 (stereo not drawn) [I-106]
11,> 6.52,"COc1ccc(O)cc1C1CCCCCN1c1cc(C)nc(N)n1 (stereo not drawn) [I-107, 3-[1-(2-amino-6-methyl-pyrimidin-4-yl)azepan-2-yl]-4-methoxy-phenol]"
12,6.00 to 6.52,Cc1cc(N2CCCOCC2c2cc([S+](C)[O-])ccc2Cl)nc(N)n1 (stereo not drawn) [I-122]
13,6.00 to 6.52,"COc1ccc(Cl)cc1[C@H]1COCCCN1c1cc(C)nc(N)n1 [I-132, (S)-4-(3-(5-chloro-2-methoxyphenyl)-1,4-oxazepan-4-yl)-6-methylpyrimidin-2-amine]"
14,> 6.52,"CNC(=O)c1ccc(OC)c([C@H]2CCCCCN2c2cc(C)nc(N)n2)c1 [I-148, (R)-3-(1-(2-amino-6-methylpyrimidin-4-yl)azepan-2-yl)-4-methoxy-N-methylbenzamide]"
15,6.00 to 6.52,Cc1cc(N2CCCOCC2c2cc(NC(=O)OC(C)(C)C)ccc2Cl)nc(N)n1 (stereo not drawn) [I-158]
16,6.00 to 6.52,COc1ccc(F)cc1C1COCCCN1c1cc(C)nc(N)n1 (stereo not drawn) [I-284]
17,6.00 to 6.52,COc1cc(F)c(F)cc1C1COCCCN1c1cc(C)nc(N)n1 (stereo not drawn) [I-286]
18,6.00 to 6.52,COC(=O)c1ccc(C2COCCCN2c2cc(C)nc(N)n2)c(OC)c1 (stereo not drawn) [I-290]
19,6.00 to 6.52,COc1ccc(Cl)cc1C1COCCCN1c1cc(C)nc(N)n1 (stereo not drawn) [I-291]
20,6.00 to 6.52,COC(=O)c1ccc(C2COCCCN2c2cc(C)nc(N)n2)c(Cl)c1 (stereo not drawn) [I-292]
21,6.00 to 6.52,Cc1cc(N2CCCOCC2c2ccc(C(=O)N(C)C)cc2Cl)nc(N)n1 (stereo not drawn) [I-293]
22,6.00 to 6.52,Cc1cc(Nc2ccc(Cl)c(C3COCCCN3c3cc(C)nc(N)n3)c2)nc(N)n1 (stereo not drawn) [I-294]
23,> 6.52,Cc1cc(N2CCC(C)OCC2c2ccccc2Cl)nc(N)n1 (stereo not drawn) [I-301]
